Test results as given in patent US20190365719A1, “COMBINATION TREATMENTS OF HSP90 INHIBITORS FOR ENHANCING TUMOR IMMUNOGENICITY AND METHODS OF USE THEREOF” (Massachusetts Institute of Technology, priority 2018, published 2019).

How the values were obtained:
Format in all cases: cell-based, mouse
[1] = tested on: Ctrl and B2m KO MC38 cells; assay: Viability of Ctrl and B2m KO MC38 cells in culture, dye reduction assay; conditions: 2-day exposure to increasing concentrations
Text: FIGS. 6A-B are graphs showing anti-tumor activity of low-dose HSP90i is dependent on functional MHC Class I expression. Ctrl or B2m KO cells were generated by CRISPR-Cas9 mediated gene editing, and B2m KO cells were confirmed to no longer express MHC-I on the cell surface. FIG. 6A is a line graph showing relative number of viable Ctrl and B2m KO cells measured by standard dye reduction assay following 2-day exposure to increasing concentrations of HSP90i; FIG. 6B is a line graph showing size in mm^3 of Ctrl or B2m KO MC38 tumors in mice treated with vehicle (Veh, solid lines) or 0.5 mg/kg/day HSP90i (dotted lines) over 25 days post implantation.
For CRISPR/Cas9-mediated disruption of B2m, pSpCas9-P2A-GFP plasmid (Addgene #48138) was modified with a control sgRNA sequence ([…]) or an sgRNA targeting B2m ([…]). Log phase MC38 cells were transfected with Ctrl or B2m plasmids using Lipofectamine 2000 (Invitrogen) according to manufacturer's instructions. 24 hours later, single GFP positive cells were sorted into 96-well plates to isolate individual MC38 clones with the desired modification. After 2 weeks, isolated clones were tested by western blot to confirm loss of B2m expression. Ctrl and B2m clones were then passaged through syngeneic mice (C57/B16) to increase the uniformity of tumor establishment and progression in subsequent experiments.

[2] = tested on: MC38 cells; assay: MHC Class I peptide profiling of MC38 cells by immunoprecipitation and mass spectrometry
Protocol: MC38 cells were cultured as described above. 10-10 cm (˜1×10^8 cells) plates of MC38 cells were cultured for 72 hours in 0.1% DMSO or 50 nM HSP990. At the time of harvest, plates were washed 1× in PBS, and then cells were lifted using PBS+2 mM EDTA. Cells were then pelleted at 500 g for 5 min and the pellets washed twice more with ice cold PBS. Pellets were then resuspended in 1 mL IP lysis buffer ([…] Tris pH 7.5, 150 mM NaCl, 1% CHAPS, 0.2 mM PMSF, 1× HALT protease/phosphatase inhibitors (Pierce). Lysates were then sonicated with a microtip sonicator for 3×10 s pulses to further disrupt cell membranes, and then centrifuged at 14 k g for 10 min. The supernatant was then quantified at 10 mg total protein lysate was used for the MHC Class IIP.
Peptide MHC isolation was performed using a modified immunoprecipitation and protein filtration protocol, as previously described. […]
Peptides were eluted using a 130 minute gradient with 10-45% buffer B (70% Acetonitrile, 0.2M acetic acid) from 5-100 minutes and 45-55% from 100-120 minutes at a flow rate of 0.2 mL/min for a flow split of approximately 10,000:1. Peptides were analyzed using a Thermo Q Exactive HF-X Hybrid Quadrupole-Orbitrap mass spectrometer. […] Full-scan mass spectrometry spectra [mass/charge ratio (m/z), 350 to 2,000; resolution, 60,000] were detected in the Orbitrap analyzer after accumulation of ions at 3e6 target value. […]

[3] = tested on: MC38 cells; assay: Flow cytometry of MHC Class I H2-Kb surface expression on MC38 cells
Protocol: (§1) For analysis of MHC Class I surface expression, cells were seeded into 12 well plates (125,000/well). 24-hours later, cells were treated with the indicated concentrations of HSP90i (NVP-HSP990) or DMSO vehicle. 72-hours after treatment, cells were dissociated with Accumax (Innovative Cell Technologies) and each treatment condition was distributed into 2 wells of a 96 well plate. […] After incubation with antibody, cells were washed 1× in ice cold PBS+10% FBS prior to analysis on a MACSQuant VYB flow cytometer. Cytometric data were plotted and analyzed with FloJo.
as §1, with “LSR-2” for “MACSQuant VYB”

Compound: COc1cccc(-c2cc(F)ccc2[C@H]2Cc3nc(N)nc(C)c3C(=O)N2)n1 [NVP-HSP990]
- sensitivity of Ctrl versus B2m KO MC38 cells in culture [1]: no difference in sensitivity
- MHC-I peptide repertoire compared to IFNγ [2]: induced a distinct repertoire of MHC-I peptides
- number of unique MHC Class I peptides identified ([2]; 50 nM HSP990, 72 hours, 557 from vehicle-treated cells): 1005
- MHC-I surface expression on MC38 cells ([3]; 60 nM for each drug): induced MHC-I
- MHC Class I surface expression on MC38 cells ([3]; 15, 30, 60 nM, 72 hours, below the IC50 for cytotoxicity): stimulated MHC Class I surface expression
